In paper PMC12320831, “Synthesis and Biological Evaluation of New Chalcogen Semicarbazone (S, Se) and Their Azole Derivatives against Chagas Disease” (Journal of Medicinal Chemistry, 2024):
Where “and” joins values, the source holds several entries; their conditions need not be identical. Equal values may be shown once. Read-outs that look alike come from different tables or passages of the source.

Assays:
[1] = DPPH radical scavenging (antioxidant) assay; conditions: for Percentage of inhibited DPPH (2 h): mean ± SEM
Description: The antioxidant capacity of the selected Se compound was tested using the DPPH assay described by Astrain-Redin. The compound was tested at three different concentrations (0.06, 0.03, and 0.015 mg/mL) and we used two positive controls: ascorbic acid (ASC) and trolox (TRO). A solution of DPPH (2,2-diphenyl-1-picrylhydrazyl) in methanol (0.04 mg/mL, preserved in the dark) was prepared and 100 μL of this stock solution was added to 100 μL of tested compound solution. The color change, from purple (radical) to yellow (reduced), was measured at 517 nm at different time points (0, 5, 15, 30, 60, 90, and 120 min). All measurements were carried out in triplicate and recorded on a BioTek PowerWave XS spectrophotometer (Biotek). Data were collected using BioTek Gen5Microplate reader and Imager software (Agilent, version 3.12). Results are expressed as a percentage of inhibited DPPH ± standard error of the mean (SEM), calculated using the following formula %inhibitedDPPH=Acontrol−Asample/Acontrol×100 where A control refers to the absorbance of the negative control and A sample refers to the absorbance of the tested compound.

[2] = biological target: T1, Recombinant human cathepsin L (hCatL) (Homo sapiens, UniProt P07711); experiment: Human cathepsin L inhibition assay (Z-FR-AMC substrate); assay type: biochemical
T1 construct: purchased R&D Systems 952-CY
Description: Compounds were screened at 10 μM. […] The experiment was performed for 30 min.
All experiments were accomplished in a 384-well black microplate, using a Synergy HTX (Biotek) plate reader at 25 °C with absorption/emission wavelengths of 360/460 nm. All assays were performed in triplicate wells and DMSO was used as a vehicle control. Enzymatic activity was measured and normalized to DMSO controls, and the inhibitor E-64 (10 μM) was used as a positive control for all assays. All experiments were performed in triplicates, with at least two independent assays (n = 6 data points). IC50 values were determined through nonlinear regression. Obtained data were treated and analyzed using GraphPad Prism 9.0 (GraphPad Software, La Jolla, California).

[3] = Snapshot pharmacokinetic study in mice; assay type: in vivo, Balb/c mice
Description: Compound Se 2h was administered intravenously (5 mg/kg in 10% dimethyl sulfoxide, 30% propylene glycol, 30% PEG 400, and 30% of 10.0% Tween 80 in DI water) and by oral gavage (50 mg/kg in PEG 400 with 5% 1-methyl-2-pyrrolidone) in two female Balb/c mice (6 weeks old) for each group. Blood samples (∼25 μL) were collected with heparinized capillary tubes via the eye vein on mice anesthetized with isoflurane precompound administration and in the following times post administration: 30 min, 1 h, 2 h, 4 h. Samples were immediately centrifuged for plasma collection (supernatant). The animal experiment was approved by the UC San Diego IACUC committee under the protocol S14187 and follow all the ethical standards. The material was submitted for mass spectrometry quantification with provided known amounts spiked in naïve plasma for reference curve.

recombinant Cz (cruzain) = biological target: T2, recombinant Cz (cruzain) (Trypanosoma cruzi, UniProt P25779); experiment: biochemical; conditions: for SICz: ratio between IC50 hCatL and IC50 Cz
T2 construct: Cz was expressed and purified as described in da Silva et al; made in house
Method in brief: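 Cruzain (1 nM) was preincubated 10 min with compound in 0.1 M sodium acetate pH 5.5, 1 mM DTT, 0.01% Triton X-100, then 2.5 μM Z-FR-AMC (final) was added. Fluorescence (360/460 nm) was read for 10 min at 25 °C and normalized to DMSO.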

[4] = Host cell cytotoxicity (C2C12 viability); assay type: cell-based, Mouse; conditions: mouse
Method in brief: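 Mouse C2C12 myoblasts co-seeded with CAI/72 trypomastigotes (10:1 parasite:cell) on compound, 48 h at 37 °C, 5% CO2. DAPI-stained fixed cells imaged; parasites per host cell normalized to 40 μM BNZ and DMSO. EC50 and C2C12 viability from dose-response curves, three biological replicates in triplicate.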

T2 sequence (P25779 123-337 limits assumed): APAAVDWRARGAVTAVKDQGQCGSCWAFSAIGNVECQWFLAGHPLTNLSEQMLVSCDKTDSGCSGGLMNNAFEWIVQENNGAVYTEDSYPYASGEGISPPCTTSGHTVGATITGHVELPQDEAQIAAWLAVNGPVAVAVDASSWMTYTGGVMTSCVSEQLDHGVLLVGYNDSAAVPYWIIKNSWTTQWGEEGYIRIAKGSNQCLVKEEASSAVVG
T1 sequence (P07711 114-333): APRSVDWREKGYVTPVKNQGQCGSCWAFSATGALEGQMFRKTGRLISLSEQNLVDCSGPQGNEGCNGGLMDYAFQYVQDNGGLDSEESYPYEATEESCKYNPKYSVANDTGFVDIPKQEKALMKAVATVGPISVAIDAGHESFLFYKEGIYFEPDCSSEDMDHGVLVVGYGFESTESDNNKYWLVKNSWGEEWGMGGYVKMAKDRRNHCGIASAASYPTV

With `C/C(=N\Nc1nc(C)c[se]1)c1cccc([N+](=O)[O-])c1.Cl` [Se2h, (E)-4-Methyl-2-(2-(1-(3-nitrophenyl)ethylidene)hydrazineyl)-1,3-selenazole Hydrochloride] the “Percentage of inhibited DPPH (2 h)” value ([1]; 0,03 mg/ml) was 78,00 ± 1,73%, the “Percentage of inhibited DPPH (2 h)” value ([1]; 0,06 mg/ml) was 78,33 ± 1,76% and the “time to reach the plateau of the DPPH kinetic curve” value ([1]; 0.015 mg/mL) was 30 min. The “Percentage of inhibited DPPH (2 h)” value ([1]; 0,015 mg/ml) was 77,33 ± 0,88%, the “inhibition of DPPH after 2 h” value ([1]; all tested concentrations (0.06, 0.03 and 0.015 mg/mL)) was “more than 60%” and the inhibition at 10 µM ([2]; 10 µM) was 92.2%. The IC50 ([2]; each of two biological replicates in triplicate, read-out: IC50 hCatL, single biological replicate (Figure 4)) was 1.32 µM and 1.36 µM, the IC50 ([2]; mean of two experiments in triplicate (n = 6) ± SEM, read-out: IC50 hCatL) was 1.34 ± 0.018 µM and the “acute toxicity in the PK study” value ([3]; 5 mg/kg intravenous and 50 mg/kg oral) was “no signs of acute toxicity”. It also gave a bioavailability ([3]; female, Balb/c, mouse, plasma, 50 mg/kg oral vs 5 mg/kg intravenous) of 82%, a Cmax at 0.5 h ([3]; female, Balb/c, mouse, plasma, oral dose 50 mg/kg) of 2300 nM and a half-life ([3]; female, Balb/c, mouse, plasma, other: intravenous and oral, 5 mg/kg intravenous and 50 mg/kg oral, read-out: half-life (T 1/2)) of less than 1 h. The “time of C max post administration” value ([3]; oral dose 50 mg/kg) was 30 min, the “Cz inhibition (%)” value (recombinant Cz (cruzain); 10 µM) was 100.09% and the IC50 (recombinant Cz (cruzain); IC50 Cz, single biological replicate (Figure 3), each of two biological replicates in triplicate) was 0.0034 µM and 0.0145 µM. It also gave an IC50 (recombinant Cz (cruzain); mean of two experiments in triplicate (n = 6) ± SEM, read-out: IC50 Cz) of 0.00899 ± 0.00556 µM, an SICz (recombinant Cz (cruzain)) of 148.83 and an SICz (recombinant Cz (cruzain); listed as Se 2h) of 149. The inhibition at 10 µM (recombinant Cz (cruzain); read-out: Cz inhibition (%), 10 µM) was greater than 85%, the viability at 48 h, 10 µM ([4]; 10 µM, < 50% viability considered cytotoxic) was greater than 100% and the CC50 at 48 h ([4]; viability calculated at 10 μM) was greater than 10 µM.
